Assay results taken from ChEMBL document CHEMBL1201862, “PubChem BioAssay data set” (2004).
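Assay format: 96-well plates, 48-hour exposure. Abbreviation: GI50, concentration required for 50% inhibition of growth.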 Active and inactive are the calls of the source. Rule as the data show it: active = GI50 up to about 1.1 µM and inactive = higher.

Columns and labels:
Assay in all cases: NCI anticancer screen, dose series, 48 h
EKVX = tested on: EKVX
M14 = tested on: M14
Malme-3M = tested on: Malme-3M
PC-3 = tested on: PC-3
OVCAR-5 = tested on: OVCAR-5
U-251 = tested on: U-251
MDA-MB-435 = tested on: MDA-MB-435
HCT-116 = tested on: HCT-116
NCI-H226 = tested on: NCI-H226
HCT-15 = tested on: HCT-15
LOX IMVI = tested on: LOX IMVI
T47D = tested on: T47D
SK-MEL-28 = tested on: SK-MEL-28
KM12 = tested on: KM12
RPMI-8226 = tested on: RPMI-8226
A498 = tested on: A498
OVCAR-4 = tested on: OVCAR-4
NCI/ADR-RES = tested on: NCI/ADR-RES
NCI-H23 = tested on: NCI-H23
MOLT-4 = tested on: MOLT-4

Measured: GI50

O=Nc1ccc(O)c2ncccc12
2.52 µM: HCT-15
inactive: M14 6.03 µM | Malme-3M 11.8 µM | PC-3 14.7 µM | OVCAR-5 15.7 µM | U-251 3.31 µM | MDA-MB-435 1.26 µM | NCI-H226 19.6 µM | LOX IMVI 3.89 µM | T47D 7.53 µM | SK-MEL-28 4.34 µM | KM12 5.19 µM | RPMI-8226 3.52 µM | A498 18.5 µM | OVCAR-4 11.6 µM | NCI/ADR-RES 3.85 µM
active: EKVX 0.525 µM | HCT-116 0.822 µM | NCI-H23 0.762 µM

COc1ccc(/C=C2/CSC/C(=C/c3ccc(OC)c(OC)c3)C2=O)cc1OC
inactive: EKVX 5.86 µM | M14 3.04 µM | Malme-3M 4.71 µM | PC-3 3.03 µM | OVCAR-5 4.62 µM | MDA-MB-435 2.97 µM | NCI-H226 1.92 µM | LOX IMVI 1.27 µM | T47D 2.21 µM | SK-MEL-28 2.94 µM | A498 4.93 µM | OVCAR-4 1.71 µM | NCI/ADR-RES 1.66 µM | MOLT-4 1.74 µM | NCI-H23 2.3 µM
active: U-251 1.01 µM | HCT-116 0.971 µM | KM12 0.798 µM | RPMI-8226 0.472 µM
1.52 µM: HCT-15

Cc1cc(NCC2CC/C(=C\C=C\c3ccccc3)C2=O)no1 (centres undefined)
inactive: EKVX > 100 µM | M14 > 100 µM | Malme-3M > 100 µM | PC-3 > 100 µM | OVCAR-5 > 100 µM | U-251 40.2 µM | MDA-MB-435 > 100 µM | HCT-116 > 100 µM | NCI-H226 49.8 µM | LOX IMVI > 100 µM | T47D > 100 µM | SK-MEL-28 > 100 µM | KM12 41.8 µM | RPMI-8226 19.5 µM | A498 51.8 µM | OVCAR-4 > 100 µM | NCI/ADR-RES 40.5 µM | MOLT-4 49.3 µM | NCI-H23 > 100 µM
67.3 µM: HCT-15

COC(=O)CCC(=O)NC1=C(Nc2ccccc2)C(=O)c2ccccc2C1=O
11.2 µM: HCT-15
inactive: EKVX 16.6 µM | M14 3.58 µM | Malme-3M 2.55 µM | PC-3 12.4 µM | OVCAR-5 9.27 µM | U-251 11.7 µM | MDA-MB-435 1.97 µM | HCT-116 9.71 µM | NCI-H226 14.6 µM | LOX IMVI 4.34 µM | T47D 13.3 µM | SK-MEL-28 8.51 µM | KM12 15.7 µM | RPMI-8226 13.2 µM | A498 15 µM | OVCAR-4 10.5 µM | NCI/ADR-RES 14.8 µM | MOLT-4 12.1 µM | NCI-H23 4.28 µM

N#Cc1c(Cl)cc(C#N)n2c1nc1ccccc12
inactive: EKVX 20.7 µM | M14 9.71 µM | Malme-3M 5.35 µM | PC-3 18.2 µM | OVCAR-5 16.4 µM | U-251 20.8 µM | MDA-MB-435 11.7 µM | HCT-116 4.11 µM | NCI-H226 33.7 µM | LOX IMVI 2.5 µM | T47D 3.12 µM | SK-MEL-28 13.3 µM | KM12 6.98 µM | RPMI-8226 4.14 µM | A498 24.5 µM | OVCAR-4 13.8 µM | NCI/ADR-RES 15.1 µM | MOLT-4 2.3 µM | NCI-H23 13.2 µM
6.07 µM: HCT-15

CC(C)(C)C(=O)OCC1CCC[N+]2(C)CCCCC12 (centres undefined)
> 100 µM: HCT-15
inactive: EKVX > 100 µM | M14 > 100 µM | Malme-3M > 100 µM | PC-3 > 100 µM | OVCAR-5 > 100 µM | U-251 > 100 µM | MDA-MB-435 > 100 µM | HCT-116 > 100 µM | NCI-H226 > 100 µM | LOX IMVI > 100 µM | T47D > 100 µM | SK-MEL-28 > 100 µM | KM12 > 100 µM | RPMI-8226 > 100 µM | A498 > 100 µM | OVCAR-4 > 100 µM | NCI/ADR-RES > 100 µM | MOLT-4 > 100 µM | NCI-H23 > 100 µM

COc1ccc2cc1Oc1ccc(cc1)C(Sc1ccccc1)CCOC(=O)CC2 (centres undefined)
18.1 µM: HCT-15
inactive: EKVX > 100 µM | M14 > 100 µM | Malme-3M > 100 µM | PC-3 > 100 µM | OVCAR-5 > 100 µM | U-251 > 100 µM | MDA-MB-435 > 100 µM | HCT-116 > 100 µM | NCI-H226 > 100 µM | LOX IMVI > 100 µM | T47D 11.5 µM | SK-MEL-28 > 100 µM | KM12 > 100 µM | RPMI-8226 13.4 µM | A498 > 100 µM | OVCAR-4 > 100 µM | NCI/ADR-RES > 100 µM | MOLT-4 > 100 µM | NCI-H23 > 100 µM

Cc1cc2c(cc1-c1cc3c(cc1C)C(C(C)C)=C(O)C(=O)/C3=C\NCC1CCCN3CCCCC13)/C(=C/NCC1CCCN3CCCCC13)C(=O)C(O)=C2C(C)C (centres undefined)
inactive: EKVX 7.98 µM | M14 5.02 µM | Malme-3M 10.3 µM | PC-3 5.02 µM | OVCAR-5 10.8 µM | U-251 2.9 µM | MDA-MB-435 7.62 µM | HCT-116 4.72 µM | NCI-H226 11 µM | LOX IMVI 3.35 µM | T47D 8.05 µM | SK-MEL-28 12.1 µM | KM12 5.15 µM | RPMI-8226 11.3 µM | A498 23.1 µM | OVCAR-4 6.79 µM | NCI/ADR-RES 7.36 µM | MOLT-4 3.52 µM | NCI-H23 6.27 µM
5.33 µM: HCT-15

C=C1C(=O)C[C@H]2C(=C)C(=O)O[C@@H]2C2C1CC[C@@]2(C)O (some centres undefined)
17.7 µM: HCT-15
inactive: EKVX 62.8 µM | M14 16.1 µM | Malme-3M 16.3 µM | PC-3 30.6 µM | OVCAR-5 32.8 µM | U-251 45.6 µM | MDA-MB-435 30.3 µM | HCT-116 31.8 µM | NCI-H226 22.2 µM | LOX IMVI 17.5 µM | T47D 28.2 µM | SK-MEL-28 27.4 µM | KM12 50 µM | RPMI-8226 7.98 µM | A498 > 100 µM | OVCAR-4 > 10 µM | NCI/ADR-RES 26.2 µM | MOLT-4 23.2 µM | NCI-H23 24.9 µM

COC(=O)/N=[N+](\[O-])C(c1ccccc1)c1ccccc1
inactive: EKVX 27.6 µM | M14 31.8 µM | Malme-3M 27.1 µM | PC-3 60.4 µM | OVCAR-5 > 100 µM | U-251 > 100 µM | MDA-MB-435 31 µM | HCT-116 > 100 µM | NCI-H226 38.6 µM | LOX IMVI 69 µM | T47D 40.2 µM | SK-MEL-28 > 100 µM | KM12 > 100 µM | RPMI-8226 38.5 µM | A498 > 100 µM | OVCAR-4 34.8 µM | NCI/ADR-RES 40.1 µM | MOLT-4 > 100 µM | NCI-H23 29.1 µM
89.7 µM: HCT-15

COC(=O)C1C(O)C(C)C(O)C(C)C=C(C)C2=C3C(=C(C)C(=O)c4c(O)c(c(C)c(OC(C)=O)c43)NC(=O)C(C)=C/C=C\C(C)C(O)C(C)C1O)OCO2 (centres undefined)
inactive: EKVX 34.3 µM | M14 25.2 µM | Malme-3M 16.2 µM | PC-3 22.8 µM | OVCAR-5 > 100 µM | U-251 45.4 µM | MDA-MB-435 15.7 µM | HCT-116 31.8 µM | NCI-H226 55.2 µM | LOX IMVI 17.1 µM | T47D 31 µM | SK-MEL-28 22.3 µM | KM12 31.9 µM | RPMI-8226 18.4 µM | A498 29.4 µM | OVCAR-4 25.3 µM | NCI/ADR-RES 40.5 µM | MOLT-4 15.6 µM | NCI-H23 24.9 µM
22.4 µM: HCT-15

C/C(=N\Nc1nc2ccccc2o1)c1ccncn1
active: EKVX 0.0526 µM | M14 0.126 µM | Malme-3M 0.124 µM | PC-3 0.31 µM | U-251 0.162 µM | MDA-MB-435 0.247 µM | HCT-116 0.0713 µM | NCI-H226 0.228 µM | LOX IMVI 0.124 µM | T47D 0.0845 µM | SK-MEL-28 0.513 µM | KM12 0.163 µM | RPMI-8226 0.109 µM | A498 0.45 µM | OVCAR-4 0.129 µM | NCI/ADR-RES 0.19 µM | MOLT-4 0.0305 µM | NCI-H23 0.36 µM
inactive: OVCAR-5 4.36 µM
0.0476 µM: HCT-15

C=C1C(=O)C=C2C=C3C(=O)C(C)(C)C[C@]3(O)C12C (some centres undefined)
2.25 µM: HCT-15
active: MOLT-4 0.57 µM
inactive: EKVX 16.1 µM | M14 1.73 µM | Malme-3M 1.83 µM | PC-3 3.14 µM | OVCAR-5 9.55 µM | U-251 17.9 µM | MDA-MB-435 12.4 µM | HCT-116 3.97 µM | NCI-H226 22.1 µM | LOX IMVI 5.14 µM | T47D 2.15 µM | SK-MEL-28 2.52 µM | KM12 16.2 µM | RPMI-8226 1.21 µM | A498 12.8 µM | OVCAR-4 3.43 µM | NCI/ADR-RES 28.8 µM | NCI-H23 4.81 µM

CN1C/C(=C\c2cccs2)C(=O)/C(=C/c2cccs2)C1
inactive: EKVX 19.1 µM | M14 21.1 µM | Malme-3M 40.1 µM | PC-3 19.2 µM | OVCAR-5 20.6 µM | U-251 15.6 µM | MDA-MB-435 16 µM | HCT-116 14.2 µM | NCI-H226 > 100 µM | LOX IMVI 16.3 µM | T47D 20.6 µM | SK-MEL-28 52.2 µM | KM12 21 µM | RPMI-8226 5.53 µM | A498 19.7 µM | OVCAR-4 18.7 µM | NCI/ADR-RES 22.1 µM | MOLT-4 6.59 µM | NCI-H23 31.2 µM
27.2 µM: HCT-15
